The test system of one data set is MDA-MB 231 cells. Nature of the data set: MDA-MB 231 cells grown as orthotopic tumors in nude mice; lung and liver metastases. Here is the method:
In addition, MDA231 cells were grown as orthotopic tumors in nude mice. […] In FIGS. 5 A and B, data were obtained by microscopic quantification of metastases in lungs and livers stained with hematoxylin and eosin. […] 4 wk BAPN represents treatment started at week 4, etc.
To evaluate the therapeutic usefulness of inhibiting LOX, mice with control MDA231 tumors were treated with β-aminoproprionitrile (BAPN), a specific and irreversible inhibitor of LOX enzymatic activity. […] In FIG. 5C, metastases were counted weekly over six weeks for ten sections (n=5 mice). Solid line, with circles control lung; dashed line with triangles, control liver; solid line with squares, BAPN lung; dashed line with squares, BAPN liver. BAPN was started at week 2. Antibody doses: unlabelled, 20 mg kg^−1; asterisk, 4 mg kg^−1; two asterisks, 1 mg kg^−1. Control, n=10; LOX shRNA, n=10; 4 wk BAPN, n=10; 3 wk BAPN, n=3; 2 wk BAPN, n=3; LOX antibody, n=5. Treatment details are given in Methods.
MDA-MB 231 cells were grown as subcutaneous orthotopic tumors in 6-week-old female Nude (nu/nu) mice following intradermal injection of 1×10^7 cells in 0.1 ml of PBS into the mammary fat pad. Mice were sacrificed and tumors excised six weeks after inoculation. […] Lung and liver metastases were defined as gross lesions of at least 25 cells.

For another data set, the system named is MDA231 and SiHa cells. Kind of data set: In vitro invasion assay (Matrigel-coated inserts). The format is cell-based. The note with it: various human cancer cells; 24 hr oxygen deprived. Here is the method:
The first step of the metastatic process is cell invasion. […] The invasion of various human cancer cells in vitro was examined. […] Because LOX is a copper-dependent enzyme that can act intracellularly or extracellularly, cells were treated with bathocuprione disulphonate (BCS), a copper chelator that cannot permeate the cell membrane.
Invasive behavior was examined in vitro as previously described. Briefly, cells were serum deprived for 24 h then 2.5×10^4 cells were seeded in triplicate on both Matrigel-coated and uncoated inserts, moved to chambers containing 750 μl of FBS as a chemo-attractant and incubated at in normoxic or oxygen deprived conditions for 24 hr. Treatments with beta-aminoproprionitrile or bathocuprione disulphonate (Sigma) were performed 24 h prior to serum deprivation, and continued throughout the experiment.

The subject of another data set is human cancer cells. Nature of the data set: Cell viability. The format is cell-based. The conditions noted are these: data not shown.
The mark [1] stands for this setting: BAPN 100 mg kg-1 daily i.p. or antibody 20 mg kg-1 twice weekly, control MDA231 tumors.

As for `N#CCCN` [BAPN, β-aminoproprionitrile], the “effect on metastatic tumors already formed” value with MDA-MB 231 cells (4 wk BAPN, treatment started at week 4) is recorded as “eliminated tumors that had formed”. In addition, the liver metastases entry is “did not have any lung metastases or liver metastases” in the data set with MDA-MB 231 cells (setting [1]) and “no liver metastases” in the data set with MDA-MB 231 cells (reduced antibody doses (4, 1 mg kg-1) or reduced periods of BAPN treatment). The lung metastases result is “did not have any lung metastases” in the data set on MDA-MB 231 cells (setting [1]) and “significantly fewer lung metastases” with MDA-MB 231 cells (reduced antibody doses (4, 1 mg kg-1) or reduced periods of BAPN treatment, even when metastases had already formed). Also, the “metastatic lesions formed in orthotopic studies” value with MDA-MB 231 cells (BAPN treated mice) is “completely absent”. Also, the deleterious side effects result in the data set on MDA-MB 231 cells (antibody up to 20 mg kg-1 twice weekly, BAPN 100 mg kg-1 daily i.p. for four, three or two weeks) is “no deleterious side effects”. Moreover, the primary tumor growth entry in the data set with MDA-MB 231 cells (inhibition of LOX with shRNA, BAPN or antibody) is “slight effect on primary tumor growth”. Further, the “invasion of primary tumors” value in the data set on MDA-MB 231 cells (primary tumors from treated mice or tumors expressing LOX shRNA) is on record as “showed evidence of invasion”. For the same molecule, the “increased invasion under hypoxia or anoxia” value in the data set with MDA231 and SiHa cells was “could be prevented”. In the data set with human cancer cells, the cell viability entry is given as “Neither treatment with BAPN nor treatment with BCS affected cell viability”.

The values above are taken from patent US20070225242A1, “Method and composition for treating and preventing tumor metastasis in vivo” (The Board of Trustees of the Leland Stanford Junior …, priority 2005, published 2007).
